# Key:
# Amaranthus retroflexus [1] = assay: greenhouse post-emergence treatment, AMARE; assay type: in vivo; conditions: Amaranthus retroflexus, scale 0 to 100, read-out: herbicidal activity against AMARE; for pest or weed control at 500 g/ha: 0.500 kg/ha
# Description: (§1) The seeds of the test plants were sown separately for each species. For the post-emergence treatment, the test plants were first grown to a height of 3 to 15 cm, depending on the plant habit, and only then treated with the active ingredients which had been suspended or emulsified in water. For this purpose, the test plants were either sown directly and grown in the same containers, or they were first grown separately as seedlings and transplanted into the test containers a few days prior to treatment. Depending on the species, the plants were kept at 10-25° C. or 20-35° C., respectively. The test period extended over 2 to 4 weeks. During this time, the plants were tended, and their response to the individual treatments was evaluated. Evaluation was carried out using a scale from 0 to 100. 100 means no emergence of the plants, or complete destruction of at least the aerial moieties, and 0 means no damage, or normal course of growth. A moderate herbicidal activity is given at values of at least 60, a good herbicidal activity is given at values of at least 70, and a very good herbicidal activity is given at values of at least 85. The plants used in the greenhouse experiments were of the following species: [table]
# Echinocloa crus-galli [2] = assay: greenhouse post-emergence treatment, ECHCG; assay type: in vivo; conditions: scale 0 to 100
# Description: as §1
# Setaria faberi [3] = assay: greenhouse post-emergence treatment, SETFA; assay type: in vivo; conditions: scale 0 to 100
# Description: as §1
# Alopecurus myosuroides = assay: greenhouse pre-emergence treatment, ALOMY; assay type: in vivo; conditions: scale 0 to 100
# Description: (§2) The seeds of the test plants were sown separately for each species. For the pre-emergence treatment, the active ingredients, which had been suspended or emulsified in water, were applied directly after sowing by means of finely distributing nozzles. The containers were irrigated gently to promote germination and growth and subsequently covered with transparent plastic hoods until the plants had rooted. This cover caused uniform germination of the test plants, unless this had been impaired by the active ingredients. Depending on the species, the plants were kept at 10-25° C. or 20-35° C., respectively. The test period extended over 2 to 4 weeks. During this time, the plants were tended, and their response to the individual treatments was evaluated. Evaluation was carried out using a scale from 0 to 100. 100 means no emergence of the plants, or complete destruction of at least the aerial moieties, and 0 means no damage, or normal course of growth. A moderate herbicidal activity is given at values of at least 60, a good herbicidal activity is given at values of at least 70, and a very good herbicidal activity is given at values of at least 85. The plants used in the greenhouse experiments were of the following species: [table]
# Amaranthus retroflexus [4] = assay: greenhouse pre-emergence treatment, AMARE; assay type: in vivo; conditions: scale 0 to 100
# Description: as §2
# Apera spica-venti = assay: greenhouse pre-emergence treatment, APESV; assay type: in vivo; conditions: scale 0 to 100
# Description: as §2
# Lamium purpureum = assay: greenhouse pre-emergence treatment, LAMPU; assay type: in vivo; conditions: 0.500 kg/ha, scale 0 to 100
# Description: as §2
# Stellaria media [5] = assay: greenhouse pre-emergence treatment, STEME; assay type: in vivo; conditions: 0.500 kg/ha, scale 0 to 100
# Description: as §2
# Viola arvensis [6] = assay: greenhouse pre-emergence treatment, VIOAR; assay type: in vivo; conditions: 0.500 kg/ha, scale 0 to 100
# Description: as §2
# Echinocloa crus-galli [7] = assay: greenhouse pre-emergence treatment, ECHCG; assay type: in vivo; conditions: scale 0 to 100
# Description: as §2
# Setaria viridis = assay: greenhouse post-emergence treatment, SETVI; assay type: in vivo; conditions: 0.500 kg/ha, scale 0 to 100
# Description: as §1
# Stellaria media [8] = assay: greenhouse post-emergence treatment, STEME; assay type: in vivo; conditions: 0.500 kg/ha, scale 0 to 100
# Description: as §1
# Viola arvensis [9] = assay: greenhouse post-emergence treatment, VIOAR; assay type: in vivo; conditions: 0.500 kg/ha, scale 0 to 100
# Description: as §1
# Setaria faberi [10] = assay: greenhouse pre-emergence treatment, SETFA; assay type: in vivo; conditions: scale 0 to 100
# Description: as §2
# [11] = known from Archiv der Pharmazie, 1984, Vol. 317, S. 754; cited from earlier work
# Abutilon theophrasti [12] = assay: greenhouse post-emergence treatment, ABUTH; assay type: in vivo; conditions: 0.500 kg/ha, scale 0 to 100
# Description: as §1
# Abutilon theophrasti [13] = assay: greenhouse pre-emergence treatment, ABUTH; assay type: in vivo; conditions: 0.500 kg/ha, scale 0 to 100
# Description: as §2
# Polygonum convolvulus = assay: greenhouse post-emergence treatment, POLCO; assay type: in vivo; conditions: 0.500 kg/ha, scale 0 to 100
# Description: as §1
structure (smiles),measurement,setting,value
Nc1nc(Nc2c(F)c(F)c(F)c(F)c2F)nc(N2CCCCC2)n1 [Example 5],pest or weed control at 1000 g/ha,Amaranthus retroflexus [1]; 1.000 kg/ha,≥ 85%
same,herbicidal activity against ECHCG,Echinocloa crus-galli [2]; 1.000 kg/ha,very good (a very good herbicidal activity is given at values of at least 85)
same,herbicidal activity against SETFA,Setaria faberi [3]; 1.000 kg/ha,very good (a very good herbicidal activity is given at values of at least 85)
same,herbicidal activity against ALOMY,Alopecurus myosuroides; 1.000 kg/ha,very good (a very good herbicidal activity is given at values of at least 85)
same,herbicidal activity against AMARE,Amaranthus retroflexus [4]; 1.000 kg/ha,very good (a very good herbicidal activity is given at values of at least 85)
same,herbicidal activity against APESV,Apera spica-venti; 1.000 kg/ha,very good (a very good herbicidal activity is given at values of at least 85)
COc1nc(N)nc(Nc2c(F)c(F)cc(F)c2F)n1 [Example 4],herbicidal activity against LAMPU,Lamium purpureum,very good (a very good herbicidal activity is given at values of at least 85)
same,herbicidal activity against STEME,Stellaria media [5],very good (a very good herbicidal activity is given at values of at least 85)
same,herbicidal activity against VIOAR,Viola arvensis [6],very good (a very good herbicidal activity is given at values of at least 85)
CC1CCC(C)N1c1nc(N)nc(Nc2c(F)c(F)cc(F)c2F)n1 (centres unmarked) [Example 18],herbicidal activity against AMARE,Amaranthus retroflexus [4]; 0.500 kg/ha,very good (a very good herbicidal activity is given at values of at least 85)
same,herbicidal activity against APESV,Apera spica-venti; 0.500 kg/ha,very good (a very good herbicidal activity is given at values of at least 85)
same,herbicidal activity against ECHCG,Echinocloa crus-galli [7]; 0.500 kg/ha,very good (a very good herbicidal activity is given at values of at least 85)
Nc1nc(Nc2c(F)c(F)c(F)c(F)c2F)nc(OCC(F)(F)F)n1 [Example 3],herbicidal activity against SETVI,Setaria viridis,very good (a very good herbicidal activity is given at values of at least 85)
same,herbicidal activity against STEME,Stellaria media [8],very good (a very good herbicidal activity is given at values of at least 85)
same,herbicidal activity against VIOAR,Viola arvensis [9],very good (a very good herbicidal activity is given at values of at least 85)
same,herbicidal activity against AMARE,Amaranthus retroflexus [4]; 1.000 kg/ha,very good (a very good herbicidal activity is given at values of at least 85)
same,herbicidal activity against ECHCG,Echinocloa crus-galli [7]; 1.000 kg/ha,very good (a very good herbicidal activity is given at values of at least 85)
same,herbicidal activity against SETFA,Setaria faberi [10]; 1.000 kg/ha,very good (a very good herbicidal activity is given at values of at least 85)
"CC(C)Nc1nc(Nc2ccccc2F)nc(NC(C)C)n1 [N6-(2-fluorophenyl)-N2,N4-diisopropyl-1,3,5-triazine-2,4,6-triamine]",trichomonacidal activity,[11],shows trichomonacidal activity
Nc1nc(Nc2c(F)c(F)c(F)c(F)c2F)nc(N2CCC2)n1 [Example 33],herbicidal activity against ABUTH,Abutilon theophrasti [12],very good (a very good herbicidal activity is given at values of at least 85)
same,pest or weed control at 500 g/ha,Amaranthus retroflexus [1],≥ 85%
same,herbicidal activity against ECHCG,Echinocloa crus-galli [2]; 0.500 kg/ha,very good (a very good herbicidal activity is given at values of at least 85)
same,herbicidal activity against ABUTH,Abutilon theophrasti [13],very good (a very good herbicidal activity is given at values of at least 85)
same,herbicidal activity against AMARE,Amaranthus retroflexus [4]; 0.500 kg/ha,very good (a very good herbicidal activity is given at values of at least 85)
same,herbicidal activity against ECHCG,Echinocloa crus-galli [7]; 0.500 kg/ha,very good (a very good herbicidal activity is given at values of at least 85)
same,herbicidal activity against SETFA,Setaria faberi [10]; 0.500 kg/ha,very good (a very good herbicidal activity is given at values of at least 85)
Nc1nc(Nc2c(F)c(F)cc(F)c2F)nc(N2CCC2)n1 [Example 34],herbicidal activity against ABUTH,Abutilon theophrasti [12],very good (a very good herbicidal activity is given at values of at least 85)
same,pest or weed control at 500 g/ha,Amaranthus retroflexus [1],≥ 85%
same,herbicidal activity against ECHCG,Echinocloa crus-galli [2]; 0.500 kg/ha,very good (a very good herbicidal activity is given at values of at least 85)
same,herbicidal activity against ABUTH,Abutilon theophrasti [13],very good (a very good herbicidal activity is given at values of at least 85)
same,herbicidal activity against AMARE,Amaranthus retroflexus [4]; 0.500 kg/ha,very good (a very good herbicidal activity is given at values of at least 85)
same,herbicidal activity against ECHCG,Echinocloa crus-galli [7]; 0.500 kg/ha,very good (a very good herbicidal activity is given at values of at least 85)
same,herbicidal activity against SETFA,Setaria faberi [10]; 0.500 kg/ha,very good (a very good herbicidal activity is given at values of at least 85)
"COc1nc(N)nc(Nc2c(F)c(F)c(F)c(F)c2F)n1 [Example 2, 6-methoxy-N2-(2,3,4,5,6-pentafluorophenyl)-1,3,5-triazine-2,4-diamine]",herbicidal activity against ECHCG,Echinocloa crus-galli [2]; 0.500 kg/ha,very good (a very good herbicidal activity is given at values of at least 85)
same,herbicidal activity against POLCO,Polygonum convolvulus,very good (a very good herbicidal activity is given at values of at least 85)
same,herbicidal activity against SETVI,Setaria viridis,very good (a very good herbicidal activity is given at values of at least 85)
same,herbicidal activity against ALOMY,Alopecurus myosuroides; 0.125 kg/ha,good to very good
same,herbicidal activity against AMARE,Amaranthus retroflexus [4]; 0.125 kg/ha,good to very good
same,herbicidal activity against APESV,Apera spica-venti; 0.125 kg/ha,good to very good
CON(C)c1nc(N)nc(Nc2c(F)c(F)c(F)c(F)c2F)n1 [Example 27],herbicidal activity against ABUTH,Abutilon theophrasti [12],very good (a very good herbicidal activity is given at values of at least 85)
same,pest or weed control at 500 g/ha,Amaranthus retroflexus [1],≥ 85%
same,herbicidal activity against SETFA,Setaria faberi [3]; 0.500 kg/ha,very good (a very good herbicidal activity is given at values of at least 85)
same,herbicidal activity against ABUTH,Abutilon theophrasti [13],very good (a very good herbicidal activity is given at values of at least 85)
same,herbicidal activity against ALOMY,Alopecurus myosuroides; 0.500 kg/ha,very good (a very good herbicidal activity is given at values of at least 85)
same,herbicidal activity against AMARE,Amaranthus retroflexus [4]; 0.500 kg/ha,very good (a very good herbicidal activity is given at values of at least 85)
same,herbicidal activity against APESV,Apera spica-venti; 0.500 kg/ha,very good (a very good herbicidal activity is given at values of at least 85)
same,herbicidal activity against SETFA,Setaria faberi [10]; 0.500 kg/ha,very good (a very good herbicidal activity is given at values of at least 85)

# Reference: patent publication US20170101383A1, “DIAMINOTRIAZINE DERIVATIVES AS HERBICIDES” (BASF SE, priority 2014, published 2017)
